What was measured:
plasma insulin = experiment: Inhibition of insulin: lowering of portal vein plasma insulin in anesthetized rats; assay type: in vivo, rats (male Sprague-Dawley); conditions: somatostatin = 1; i.v. via external jugular vein, portal vein blood after 5 minutes; limits in parentheses
Description: (§1) The relative potencies of somatostatin analogs on the lowering of plasma insulin and glucagon are determined by the following method:
(§2) Analogs of somatostatin were compared to somatostatin in their ability to lower the levels of portal vein glucagon and insulin in anesthetized rats. Male Sprague-Dawley rats (Charles River CD) weighing 160-200 grams were anesthetized with urethane (150 mg./100 gm.) Saline or peptides were administered via the external jugular vein. After 5 minutes the portal vein was exposed and blood was collected via syringes containing 3 mg. EDTA and placed in chilled tubes containing 100 μl. of Trasylol (obtained from FBA Pharmaceuticals) for subsequent hormone analysis. Plasma levels of glucagon were determined by the method of Faloona, G. R., and Unger, R. H. "Glucagon" in Methods of Hormone Radioimmunoassay, eds. […] Plasma levels of insulin were determined by a modification of the procedure of Herbert, V., Lau, K. S. Gottlieb, C. […]
(§3) Doses were randomized between groups of animals (6 rats/group). Potency values were determined by four, six, or eight point bioassays with somatostatin as the reference standard. Relative potency values were calculated by a relative potency formula for parallel line bioassays as described in Finney, D. J. Statistical Method in Biological Assay (Charles Griffin and Co., Ltd., London) Chap. […]

plasma glucagon = experiment: Inhibition of glucagon: lowering of portal vein plasma glucagon in anesthetized rats; assay type: in vivo, rats (male Sprague-Dawley); conditions: somatostatin = 1; i.v. via external jugular vein, portal vein blood after 5 minutes; limits in parentheses
Description: as §1, §2, §3

growth hormone release = experiment: Inhibition of pentobarbital stimulated growth hormone release in vivo; design: species or system rats; conditions: somatostatin = 1; subcutaneous injection, blood after 15 minutes; limits in parentheses
Description: Somatostatin analogs were compared to somatostatin in their ability to inhibit the release of growth hormone in pentobarbital stimulated rats; a modification of the procedure of Brazeau et al. Endocrinology, 94, 184-187 (1974) was employed. Rats were lightly etherized and sodium pentobarbital (17 mg./Kg. was injected into the exposed Saphenous vein; somatostatin or analog was simultaneously injected subcutaneously. After 15 minutes the animals were bled via the orbital sinus and blood collected for subsequent growth hormone analysis.
(§4) Doses were randomized between groups of animals (6 rats/group). Potency values were determined by four, six, or eight point bioassays with somatostatin as the reference standard. Relative potency values were calculated by a relative potency formula for parallel line bioassays as described in Finney, D. J. Statistical Method in Biological Assay (Charles Griffin and Co., Ltd., London) Chap. 4 pp. 99-138 (1964).

Rat pituicytes = experiment: Growth hormone inhibition in vitro; assay type: cell-based; conditions: somatostatin = 1, 4 hours incubation, limits in parentheses
Description: Rat pituicytes were isolated according to the procedures of Vale and Grant "In vitro Pituitary Hormone Secretion Assay for Hypophysiotropic Substances" in Methods in Enzymology. Vol. XXXVII, eds. O'Malley, B. W. and Hardman, J. G. (Academic Press, Inc., New York) pp. 5-93 (1975).
After 4 days in culture, the cells were washed and incubated for 4 hours in Dulbecco-modified Eagle's medium in the presence or absence of graded doses of each analog or somatostatin. The medium was then collected for subsequent growth hormone determination by a double antibody radioimmunoassay for rat growth hormone.
as §4

[1] = system: pentagastrin evoked gastric secretion; experiment: Pentagastrin evoked gastric secretion in chronic fistula beagle dogs; assay type: in vivo; conditions: 0.8 γ/kg./min. infused 0-60 min.
Description: The effect of somatostatin and its analogs on gastric secretion were determined by the following method:
Compounds were tested for their ability to inhibit pentagastrin evoked gastric secretion in the chronic fistula dog. Female beagle dogs with a chronic gastric fistula were given pentagastrin (2.5 μg./kg./hour, i.v. from -60 to 120 min.) and gastric outputs were collected via the fistula cannula. Samples were analyzed at 30 minute intervals for volume (ml.) and titratable acid (mEq/L) (titration […] with 0.01N NaOH); total acid output (mEq) was calculated as the product of output volume and acid concentration. Test compounds were infused at a constant rate from 0 to 60 minutes. Data have been expressed as percent change of total acid output relative to a placebo trial in the same animals.

C[C@H](N)C(=O)NCC(=O)N[C@H]1CSSC[C@@H](C(=O)O)NC(=O)[C@H](CO)NC(=O)[C@H]([C@@H](C)O)NC(=O)[C@H](Cc2ccccc2)NC(=O)[C@H]([C@@H](C)O)NC(=O)[C@H](CCCCN)NC(=O)[C@H](Cc2c[nH]c3ccccc23)NC(=O)[C@H](Cc2ccccc2)NC(=O)[C@H](Cc2ccccc2)NC(=O)[C@H](CC(N)=O)NC(=O)[C@H](CCCCN)NC1=O [(I), Somatostatin]
Inhibition of Insulin, potency relative to somatostatin (plasma insulin): 1
Inhibition of Glucagon, potency relative to somatostatin (plasma glucagon): 1
Inhibition of Pentobarbital Stimulated Growth Hormone Release In Vivo, potency relative to somatostatin (growth hormone release): 1
Growth Hormone Inhibition In Vitro, potency relative to somatostatin (Rat pituicytes): 1
Titratable acid, percent change, during 0-30 ([1]; sample 0-30 min, during treatment): -16%
Total acid output, percent change, during 0-30 ([1]; sample 0-30 min, during treatment, relative to placebo trial in the same animals): -89%
Titratable acid, percent change, during 30-60 ([1]; sample 30-60 min, during treatment): -17%
Total acid output, percent change, during 30-60 ([1]; sample 30-60 min, during treatment, relative to placebo trial in the same animals): -99%
Titratable acid, percent change, post-treat 60-90 ([1]; sample 60-90 min, post-treatment): -61%
Total acid output, percent change, post-treat 60-90 ([1]; sample 60-90 min, post-treatment, relative to placebo trial in the same animals): -93%
Titratable acid, percent change, post-treat 90-120 ([1]; sample 90-120 min, post-treatment): -41%
Total acid output, percent change, post-treat 90-120 ([1]; sample 90-120 min, post-treatment, relative to placebo trial in the same animals): -45%

— patent US4139526A, “Somatostatin analogs” (Merck & Co., Inc., priority 1977, dated 1979)
